The text below walks through data of US7993922B2, “Three-dimensional tissue equivalent using macromass culture” (Reliance Life Sciences Pvt. Ltd., priority 2002, dated 2011).

For data set [1], the system named is neuropathic diabetic foot ulcers. The note with it: topical; cited from earlier work.
Data set [2] has as its system dividing monolayers of fibroblasts. Description: Camptothecin toxicity on dividing monolayers, MTT. The data set is classed as cell-based, human. The conditions noted are these: actively dividing monolayer cells. The protocol: (§1) As mentioned previously, the tissue equivalent of the present invention could be used as an in vitro model of normal non-dividing cells for safety testing of anti-cancer compounds. To test its usefulness as such a model, dividing monolayers of fibroblasts and the tissue-equivalent of the present invention were incubated with or without (control) camptothecin, an anti-cancer drug known to act on dividing cells and not on non-dividing cells. Both were incubated for the same period of time. Then the metabolic activity was assessed by incubating both groups in MTT, which was quantified by spectrophotometry. […] Leroy et al. Ann. N.Y. Acad. Sci. (2000) 922:1-10. Thus, these are normal cells in a non-dividing state, which could be a model of the normal quiescent cells of the human body, in contrast to the abnormal tumour cells which are rapidly dividing.

Data set [3] has as its system tissue-equivalent of the present invention (non-dividing fibroblasts). Description: Camptothecin toxicity on the non-dividing model (tissue equivalent), MTT. The format is cell-based, human. The note with it: non-dividing cells. The procedure: as §1

As for “Regranex® Becaplermin: FDA-approved topical platelet-derived growth factor (PDGF) for chronic diabetic neuropathic ulcers”, the “Acceleration in the healing of ulcers” value in data set [1] was 15%.

Turning to `CC[C@@]1(O)C(=O)OCc2c1cc1n(c2=O)Cc2cc3ccccc3nc2-1` [camptothecin], the “Toxicity (metabolic activity, MTT)” value is recorded as “toxic” in data set [2] and “no toxicity” in data set [3].
